Like-named read-outs stand apart in the source and are kept apart here.
Legend:
[1] = molecular target: T1, μ-opioid receptor (Homo sapiens, UniProt P35372); assay: μ-opioid receptor radioligand dose-displacement binding assay ([3H]-diprenorphine); parameters: expressed in transfected cells; host or cells: HEK-293 or CHO
Procedure: Radioligand dose-displacement binding assays for μ-opioid receptors used 0.3 nM [^3H]-diprenorphine (Perkin Elmer, Shelton, Conn.), with […] membrane protein/well in a final volume of 500 μl binding buffer (10 mM MgCl2, 1 mM EDTA, 5% DMSO, 50 mM HEPES, pH 7.4). Reactions were carried out in the absence or presence of increasing concentrations of unlabeled naloxone. All reactions were conducted in 96-deep well polypropylene plates for 2 hr at room temperature. […] The data were analyzed using the one-site competition curve fitting functions in GraphPad PRISM™ v. 3.0 or higher (San Diego, Calif.), or an in-house function for one-site competition curve-fitting.

[2] = molecular target: T2, κ opioid receptor (Homo sapiens, UniProt P41145); assay: biochemical; assay type: binding; parameters: expressed in transfected cells; host or cells: HEK 293 (in-house membrane prep); conditions: HEK-293 or CHO cells
T2 sequence (P41145 whole entry): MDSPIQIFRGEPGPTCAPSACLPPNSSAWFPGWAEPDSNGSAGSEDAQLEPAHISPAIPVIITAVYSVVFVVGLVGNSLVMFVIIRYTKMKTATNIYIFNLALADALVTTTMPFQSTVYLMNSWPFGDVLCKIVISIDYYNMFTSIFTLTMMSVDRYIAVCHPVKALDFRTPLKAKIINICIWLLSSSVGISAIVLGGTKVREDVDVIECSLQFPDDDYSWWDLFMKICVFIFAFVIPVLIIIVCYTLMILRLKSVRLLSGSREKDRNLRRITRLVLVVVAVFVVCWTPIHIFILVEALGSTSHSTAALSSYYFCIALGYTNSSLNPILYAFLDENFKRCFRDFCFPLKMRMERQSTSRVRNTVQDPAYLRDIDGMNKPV

[3] = molecular target: T2, κ opioid receptor; assay: κ-opioid receptor [35S]GTPγS functional assay, HEK-293 or CHO cells; assay type: biochemical; parameters: expressed in transfected cells; host or cells: U-2 OS (in-house membranes); conditions: for Emax: relative to U69,593
Procedure: Membranes from recombinant HEK-293 cells, CHO or U-2 OS cells expressing the recombinant human κ opioid receptor (κ) were prepared by lysing cells in ice cold hypotonic buffer (2.5 mM MgCl2, 50 mM HEPES, pH 7.4) (10 mL/10 cm dish) followed by homogenization with a tissue grinder/Teflon pestle. Membranes from a cell line naturally expressing kappa opioid receptors can also be used. Membranes were collected by centrifugation at 30,000×g for 15 min at 4° C. and pellets were resuspended in hypotonic buffer to a final concentration of 1-3 mg/mL. Protein concentrations were determined using the BioRad protein assay reagent with bovine serum albumen as standard. Aliquots of κ receptor membranes were stored at −80° C.
Plates were incubated for 30 min at a temperature of about 25° C. with shaking.

[4] = molecular target: T1, μ-opioid receptor; assay: μ-opioid receptor [35S]GTPγS functional assay, HEK-293 or CHO cells; conditions: for Emax: read-out: GTPγS μ Emax
[5] = molecular target: T1, μ-opioid receptor; assay: μ-opioid receptor [35S]GTPγS functional assay, U-2 OS cells; assay type: biochemical; parameters: expressed in transfected cells; host or cells: U-2 OS; conditions: U-2 OS cells; for EC50: read-out: GTPγS μ EC50; for Emax: relative to DAMGO, read-out: GTPγS μ Emax
[6] = molecular target: T2, κ opioid receptor; assay: κ-opioid receptor [35S]GTPγS functional assay, U-2 OS cells; assay type: biochemical; parameters: expressed in transfected cells; host or cells: U-2 OS (in-house membranes); conditions: U-2 OS cells; for EC50: bound in μM, read-out: GTPγS κ EC50; for Emax: relative to U69,593, read-out: GTPγS κ Emax
[7] = molecular target: T3, human opioid receptor-like receptor (ORL-1) (Homo sapiens, UniProt P41146); assay: ORL-1 receptor radioligand binding assay ([3H]-nociceptin); conditions: HEK-293 or CHO cells; bound in μM
T3 construct: host or cells: HEK-293
T3 sequence (P41146 whole entry): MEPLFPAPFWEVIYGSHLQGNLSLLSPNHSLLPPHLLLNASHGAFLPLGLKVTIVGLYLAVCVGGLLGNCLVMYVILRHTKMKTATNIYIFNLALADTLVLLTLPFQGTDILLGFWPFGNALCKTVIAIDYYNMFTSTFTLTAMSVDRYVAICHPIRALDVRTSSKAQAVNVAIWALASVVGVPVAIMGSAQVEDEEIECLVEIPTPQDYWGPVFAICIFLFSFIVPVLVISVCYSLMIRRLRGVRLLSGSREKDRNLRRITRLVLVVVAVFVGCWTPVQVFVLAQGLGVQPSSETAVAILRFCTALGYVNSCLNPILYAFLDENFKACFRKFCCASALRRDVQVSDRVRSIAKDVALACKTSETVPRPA
Procedure: Membranes from recombinant HEK-293 cells expressing the human opioid receptor-like receptor (ORL-1) (Perkin Elmer, Shelton, Conn.) are prepared by lysing cells in ice-cold hypotonic buffer (2.5 mM MgCl2, 50 mM HEPES, pH 7.4) (10 ml/10 cm dish) followed by homogenization with a tissue grinder/Teflon pestle. Membranes are collected by centrifugation at 30,000×g for 15 min at 4° C. and pellets resuspended in hypotonic buffer to a final concentration of 1-3 mg/ml. Protein concentrations are determined using the BioRad protein assay reagent with bovine serum albumen as standard. Aliquots of the ORL-1 receptor membranes are stored at −80° C.
Radioligand binding assays (screening and dose-displacement) use 0.1 nM [^3H]-nociceptin (Perkin Elmer, Shelton, Conn.; 87.7 Ci/mmole) with 12 μg membrane protein in a final volume of 500 μl binding buffer (10 mM MgCl2, 1 mM EDTA, 5% DMSO, 50 mM HEPES, pH 7.4). Non-specific binding is determined in the presence of […] unlabeled nociceptin (American Peptide Company). All reactions are performed in 96-deep well polypropylene plates for 1 h at room temperature. […] The data from screening and dose-displacement experiments are analyzed using Microsoft Excel and the curve fitting functions in GraphPad PRISM™, v. 3.0 or higher, respectively, or an in-house function for one-site competition curve-fitting.

[8] = HEK-293 or CHO cells, read-out: Ki Opioid Receptor μ
[9] = HEK-293 or CHO cells, read-out: GTPγS κ EC50
[10] = HEK-293 or CHO cells, bound in μM, read-out: GTPγS κ EC50

T1 sequence (P35372 whole entry, species assumed): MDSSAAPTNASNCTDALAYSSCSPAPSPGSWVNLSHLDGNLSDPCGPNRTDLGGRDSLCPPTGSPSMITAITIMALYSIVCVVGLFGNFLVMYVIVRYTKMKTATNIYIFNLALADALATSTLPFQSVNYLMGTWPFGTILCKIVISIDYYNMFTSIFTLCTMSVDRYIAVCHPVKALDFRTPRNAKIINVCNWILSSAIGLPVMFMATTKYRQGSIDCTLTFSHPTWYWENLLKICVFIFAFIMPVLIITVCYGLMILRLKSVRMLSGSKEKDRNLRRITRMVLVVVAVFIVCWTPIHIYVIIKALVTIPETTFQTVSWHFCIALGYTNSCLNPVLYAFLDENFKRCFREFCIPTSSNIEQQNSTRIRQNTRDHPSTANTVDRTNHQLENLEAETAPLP

SMILES | Ki [1, 8] [nM] | Ki [2] [µM] | EC50 [3, 9] [µM] | Emax ([3]; HEK-293 or CHO cells) [%] | EC50 [4] [nM] | Emax [4] [%] | Ki [1] [nM] | Ki ([2]; bound in μM) [µM] | EC50 [5] [nM] | Emax [5] [%] | EC50 [6] [µM] | Emax [6] [%] | EC50 [3, 10] [µM] | EC50 [3] [µM] | Ki [7] [µM]
COc1ccc2c(c1)[C@@]1(C)CCN(CC3CC3)C(C2)C1N(C)C(=O)/C=C/c1ccoc1 (stereo in doubt) [Compound 57, (E)-N-((2R,6R,11S)-3-(cyclopropylmethyl)-8-methoxy-6-methyl-1,2,3,4,5,6-hexahydro-2,6-methanobenzo[d]azocin-11-yl)-3-(furan-3-yl)-N-methylacrylamide] | 236 ± 70.2 | 0.00461 ± 0.00143 | 0.351 ± 0.115 | 85.7 ± 3.93 | 315 ± 47.9 | 112 ± 7.22 |  |  |  |  |  |  |  |  | 
COc1ccc2c(c1)C1(C)CCN(C)C(C2)C1=NOCC(=O)O (stereo not shown) [Compound 1, 2-(((8-methoxy-3,6-dimethyl-1,2,3,4,5,6-hexahydro-2,6-methanobenzo[d]azocin-11-ylidene)amino)oxy)acetic Acid] |  | 12.1 |  |  |  |  | > 20000 |  |  |  |  |  |  |  | 
COc1ccc2c(c1)C1(C)CCN(C)C(C2)C1=NO (stereo not shown) [Compound 2, 8-methoxy-3,6-dimethyl-1,2,3,4,5,6-hexahydro-2,6-methanobenzo[d]azocin-11-one Oxime] |  | 2.58 ± 0.122 |  |  |  |  | > 20000 |  |  |  |  |  |  |  | 
COc1ccc2c(c1)[C@@]1(C)CCN(C)C(C2)[C@@H]1OCC(N)=O [Compound 3, 2-(((6R,11R)-8-methoxy-3,6-dimethyl-1,2,3,4,5,6-hexahydro-2,6-methanobenzo[d]azocin-11-yl)oxy)acetamide] |  |  |  |  |  |  | > 20000 | > 20 |  |  |  |  |  |  | 
COc1ccc2c(c1)[C@@]1(C)CCN(C)C(C2)[C@H]1OCC(N)=O [Compound 4, 2-(((6R,11S)-8-methoxy-3,6-dimethyl-1,2,3,4,5,6-hexahydro-2,6-methanobenzo[d]azocin-11-yl)oxy)acetamide] |  |  |  |  |  |  | > 20000 | > 20 |  |  |  |  |  |  | 
CCN(CC)CCON=C1C2Cc3ccc(OC)cc3C1(C)CCN2C (stereo not shown) [Compound 5, 8-methoxy-3,6-dimethyl-1,2,3,4,5,6-hexahydro-2,6-methanobenzo[d]azocin-11-one O-(2-(diethylamino)ethyl)oxime] |  | 10.7 |  |  |  |  | > 20000 |  |  |  |  |  |  |  | 
CCC=C1C2Cc3ccc(OC)cc3C1(C)CCN2C (stereo not shown) [Compound 6, 8-methoxy-3,6-dimethyl-11-propylidene-1,2,3,4,5,6-hexahydro-2,6-methanobenzo[d]azocine] |  | 3.16 ± 1.24 |  |  |  |  | > 20000 |  |  |  |  |  |  |  | 
CN1CC[C@]2(C)c3cc(O)ccc3C[C@@H]1[C@H]2Nc1ccc(CCS(N)(=O)=O)cc1 [Compound 50, 2-(4-(((2R,6R,11S)-8-hydroxy-3,6-dimethyl-1,2,3,4,5,6-hexahydro-2,6-methanobenzo[d]azocin-11-yl)amino)phenyl)ethanesulfonamide] |  | 0.0583 ± 0.0101 |  |  | 189 ± 13.7 | 93.8 ± 2.17 |  |  | 42 ± 10.9 | 86.5 ± 4.14 | > 20 | 9.78 ± 2.97 | > 20 |  | 
COc1ccc2c(c1)[C@@]1(C)CCN(C)C(C2)C1N1CCCC(C(=O)O)C1 (stereo partly drawn) [Compound 74, 1-((6R)-8-methoxy-3,6-dimethyl-1,2,3,4,5,6-hexahydro-2,6-methanobenzo[d]azocin-11-yl)piperidine-3-carboxylic acid] |  | 0.0241 ± 0.00593 |  | 53 ± 2.31 | 639 ± 147 | 31.7 ± 0.67 | 230 ± 43.8 |  |  |  |  |  |  | 0.637 ± 0.0651 | 
CN(C(=O)/C=C/c1ccoc1)[C@H]1C2Cc3ccc(O)cc3[C@@]1(C)CCN2CC1CC1 [Compound 83, (E)-N-((6R,11R)-3-(cyclopropylmethyl)-8-hydroxy-6-methyl-1,2,3,4,5,6-hexahydro-2,6-methanobenzo[d]azocin-11-yl)-3-(furan-3-yl)-N-methylacrylamide] | 1.78 ± 0.38 | 0.00015 ± 2e-05 | 0.00267 ± 0.00084 | 77.7 ± 1.76 | 10.6 ± 1.18 | 92.7 ± 5.21 |  |  |  |  |  |  |  |  | 
CN1CC[C@]2(C)c3cc(O)ccc3CC1[C@@H]2N1Cc2ccccc2NC1=O [Compound 91] |  | 0.174 ± 0.0257 | 2.81 ± 0.129 | 34.7 ± 5.93 | 409 ± 19.5 | 89.7 ± 5.9 |  |  | 378 ± 61.9 | 71.3 ± 3.53 |  |  |  |  | 
CN1CC[C@@]2(C)c3cc(O)ccc3C[C@@H]1[C@@H]2NCCc1ccc(S(N)(=O)=O)cc1 [Compound 92, 4-(2-(((2R,6S,11R)-8-hydroxy-3,6-dimethyl-1,2,3,4,5,6-hexahydro-2,6-methanobenzo[d]azocin-11-yl)amino)ethyl)benzenesulfonamide] | 54.5 ± 17.3 | 0.163 ± 0.00383 |  | 3.5 ± 1.71 | 68.9 ± 16 | 100 ± 3.12 |  |  | 149 ± 25.5 | 97.3 ± 3.53 | > 20 | 1 | > 20 |  | > 20
CN1CC[C@]2(C)c3cc(O)ccc3C[C@H]1[C@H]2NCCc1ccc(S(N)(=O)=O)cc1 [Compound 93, 4-(2-(((2S,6R,11S)-8-hydroxy-3,6-dimethyl-1,2,3,4,5,6-hexahydro-2,6-methanobenzo[d]azocin-11-yl)amino)ethyl)benzenesulfonamide] | 3700 ± 91.4 | 5.35 ± 0.541 |  |  | 3140 ± 790 | 92 ± 4.3 |  |  | 4560 ± 743 | 80.7 ± 4.48 | > 20 | 2 |  |  | > 20
CN1CC[C@@]2(C)c3cc(O)ccc3C[C@@H]1[C@H]2NCCc1ccc(S(N)(=O)=O)cc1 [Compound 94, 4-(2-(((2R,6S,11S)-8-hydroxy-3,6-dimethyl-1,2,3,4,5,6-hexahydro-2,6-methanobenzo[d]azocin-11-yl)amino)ethyl)benzenesulfonamide] | 36.8 ± 12.1 | 0.0168 ± 0.00251 |  | 4.6 ± 0.4 | 40.8 ± 2.76 | 85.3 ± 4.98 |  |  | 27.4 ± 4.2 | 85.3 ± 5.93 | > 20 | 0 | > 20 |  | > 20
CN1CC[C@]2(C)c3cc(O)ccc3C[C@H]1[C@@H]2NCCc1ccc(S(N)(=O)=O)cc1 [Compound 95, 4-(2-(((2S,6R,11R)-8-hydroxy-3,6-dimethyl-1,2,3,4,5,6-hexahydro-2,6-methanobenzo[d]azocin-11-yl)amino)ethyl)benzenesulfonamide] | 1760 ± 324 | 4.6 ± 0.764 |  |  | 2120 ± 204 | 78 ± 3.06 |  |  | 1440 ± 44.7 | 79.7 ± 8.41 | > 20 | -1 |  |  | > 20
